Data: JPH07173127A, “ヒドロキサム酸誘導体およびそれを有効成分とするエラスターゼ阻害剤” (Kuraray Co Ltd, priority 1993, dated 1995)

Target: T1, human leukocyte-derived elastase [ヒト白血球由来エラスターゼ] (Homo sapiens, UniProt P08246)
T1 construct: ヒト白血球由来エラスターゼはシグマ社; purchased Sigma (USA); host or cells: human leukocytes (natural source, as the printed name says)
T1 sequence (P08246 30-247 limits assumed): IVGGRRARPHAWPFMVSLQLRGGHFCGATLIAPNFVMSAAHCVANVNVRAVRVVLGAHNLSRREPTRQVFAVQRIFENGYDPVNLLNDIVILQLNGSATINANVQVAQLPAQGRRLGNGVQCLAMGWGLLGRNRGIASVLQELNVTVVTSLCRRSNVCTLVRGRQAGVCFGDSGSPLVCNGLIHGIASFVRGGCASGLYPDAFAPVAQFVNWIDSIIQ
Assay: エラスターゼ阻害試験 (elastase inhibition test, Test Example 1; fluorogenic substrate)
Format: biochemical
Conditions: 50% inhibitory concentration of elastase activity; substrate methoxysuccinyl-Ala-Ala-Pro-Val-4-methyl-coumaryl-7-amide; 0.2M Tris-HCl buffer containing 1M NaCl, pH 8.5; 35℃, 5 min incubation; fluorescence 370/460 nm

CCOC(=O)C(CCC(C)C)(CCC(C)C)C(=O)NOCc1ccccc1 [実施例1, 2−イソペンチル−5−メチル−2−エトキシカルボニルヘキサノヒドロキサム酸ベンジルエステル]
IC50: 3000 nM

CCOC(=O)C(CCC(C)C)(CCC(C)C)C(=O)NO [実施例2, 2−イソペンチル−5−メチル−2−エトキシカルボニルヘキサノヒドロキサム酸]
IC50: 1000 nM

CC(C)CCC(CCC(C)C)C(=O)NO [実施例4, 2−イソペンチル−5−メチルヘキサノヒドロキサム酸]
IC50: 1000 nM
